Measurements published in US11192900B2, “Substituted 1,6-dihydropyridinones and 1,2-dihydroisoquinolinones as bet inhibitors” (NUVATION BIO INC., priority 2018, dated 2021).

Experiments:
[1] = system: KOPN-8; experiment: Cell viability in AML and DLBCL cell lines (Cell Titer-Glo); type: cell-based; conditions: Homo sapiens; KOPN-8, Cell Titer-Glo, 72 hr
Method: (§1) A panel of AML and DLBCL cell lines was profiled for effects of compound 3 on cell viability. Cells were seeded at a count of 3000-8000 cells per well/40 μl in a 384-well plate and incubated at 37° C., 5% CO2 overnight. Cells were treated with test compounds at 10 concentrations within a desired concentration range (e.g. 0.5 nM-10 μM) for generation of dose response curves by preparing serial dilutions of the test compound in DMSO which were further diluted with culture medium and then added in a volume of […] to each well. Cells were cultured in the presence of inhibitors at various concentrations for 72 hr. The assay was terminated by addition of […] Cell Titer-Glo reagent (Promega, Madison, Wis.) to each well. Contents were mixed, the plate was incubated for 10 min at room temperature and luminescence was measured. The IC50 value of each test compound was calculated with XLFit curve fitting software.

[2] = system: SU-DHL6; experiment: as above; type: cell-based; conditions: Homo sapiens, SU-DHL-6, 72 hr
Method: as §1

[3] = system: KG-1a; experiment: as above; type: cell-based; conditions: Homo sapiens, 72 hr
Method: as §1

[4] = system: NOMO-1; experiment: as above; type: cell-based; conditions: Homo sapiens; NOMO-1, Cell Titer-Glo, 72 hr
Method: as §1

[5] = system: OCI-AML3; experiment: as above; type: cell-based; conditions: Homo sapiens, OCI-AML-3, 72 hr
Method: as §1

[6] = system: RS4; 11; experiment: as above; type: cell-based; conditions: Homo sapiens, 11, Cell Titer-Glo, 72 hr
Method: as §1

[7] = system: WSU-DLCL2; experiment: as above; type: cell-based; conditions: Homo sapiens, WSUDLCL2, 72 hr
Method: as §1

[8] = system: SU-DHL4; experiment: as above; type: cell-based; conditions: Homo sapiens, SU-DHL-4, 72 hr
Method: as §1

[9] = system: MV4-11 cells; experiment: Cell viability assay after wash-off (FITC-annexin V / 7-AAD flow cytometry); type: cell-based, human; conditions: MV4-11, 0.5 or 2 μM for 2 or 4 hr, total 48 hr
Method: MV4-11 cells were incubated with compound (at a concentration of 0.5 or 2 μM) or mivebresib (at a concentration of 0.5 or 2 μM) for 2 or 4 hr before wash-off with culture medium and re-plated in fresh culture medium for a total of 48 hr. Cells were stained with FITC-annexin V and 7-AAD before flow cytometric analysis using a Stratedigm flow cytometer. Viable cells are negative for FITC-annexin V and 7-AAD.

[10] = system: c-Myc; experiment: Measurement of c-Myc suppression after washoff (Western blot); type: cell-based, human; conditions: MV4-11, 2 μM for 2 hr, washed, further 6 hr
Method: MV4-11 cells were incubated with 2 μM of JQ1, mivebresib or a test compound for 2 hr. The cells were then washed twice with fresh culture medium and further cultured for another 6 hr. Cells were extracted with SDS sample buffers and then subjected to Western blot analysis to measure c-Myc. Compounds 2, 3, 12, 17, 409, 411 and 412 were tested in these assays.

[11] = system: IEC-6 rat intestinal epithelial cell line; experiment: IEC-6 cell viability, Protocol B (toxicity to non-cancerous cells); type: cell-based; conditions: Rattus norvegicus; IEC-6, 4000 cells per well, 48 hrs
Method: The effects of test compounds were also studied in the IEC-6 rat intestinal epithelial cell line to assess potential toxicity to non-cancerous cells. The cells were harvested during the logarithmic growth period and counted. In Protocol A, cells were seeded at a count of 3000 cells per well/100 μl in a 96-well plate. After seeding, cells were incubated at 37° C., 5% CO2 for 24 hr. Cells were treated with test compounds at 8 concentrations within a desired concentration range (e.g. 5 nM-10 μM) for generation of dose response curves by preparing serial dilutions of the test compound in DMSO which were further diluted with culture medium and then added to each well. The plate was further incubated for another 96 hrs in humidified incubator at 37° C. and 5% CO2. The assay was terminated by addition of resazurin (# R7017, Sigma). The plate was incubated for 4 hr at 37° C., 5% CO2 and fluorescence was measured using excitation and emission wavelengths of 535 and 590 nm, respectively. Cell viability data were plotted using GraphPad Prism (GraphPad Software, Inc., San Diego, Calif.). In addition, a nonlinear regression model with a sigmoidal dose response and variable slope within GraphPad Prism was used to calculate the IC50 value of individual test compounds. Protocol B was the same as Protocol A except that cells were seeded at a count of 4000 cells per well/100 μl in a 96-well plate, and the incubation with test compound was for 48 hrs instead of 96 hrs.

[12] = system: MV-4-11 human acute myeloid leukemia cell line; experiment: Second cell viability assay in MV-4-11 (Cell Titer-Glo); type: cell-based; conditions: Homo sapiens; MV4-11, Cell Titer-Glo, 72 hrs; read-out: Cell Viability IC50 in MV4-11 cells
Method: The effects of test compounds were studied in a second cell viability assay in the MV-4-11 human acute myeloid leukemia cell line. The cells were harvested during the logarithmic growth period and counted. Cells were seeded at a count of 15000 cells per well/100 μl. After seeding, cells were incubated at 37° C., 5% CO2 for 1 hr. Cells were treated with test compounds at 8 concentrations within a desired concentration range (e.g. 5 nM-[…]) for generation of dose response curves by preparing serial dilutions of the test compound in DMSO which were further diluted with culture medium and then added to each well. The plate was further incubated for another 72 hrs in a humidified incubator at 37° C. and 5% CO2. The assay was terminated by addition of Cell Titer-Glo reagent (Promega, Madison, Wis.) at ¼ the volume of total medium per well. Contents were mixed, the plate was incubated for 10 min at room temperature and luminescence was measured. Cell viability data were plotted using GraphPad Prism (GraphPad Software, Inc., San Diego, Calif.). In addition, a nonlinear regression model with a sigmoidal dose response and variable slope within GraphPad Prism was used to calculate the IC50 value of individual test compounds.

C=CS(=O)(=O)Nc1ccc(Oc2ccc(F)cc2F)c(-c2cc(NC)c(=O)n(C)c2)c1 [Compound 3, N-(4-(2,4-difluorophenoxy)-3-(1-methyl-5-(methylamino)-6-oxo-1,6-dihydropyridin-3-yl)phenyl)ethenesulfonamide]
IC50 [1]: 9 nM
IC50 [2]: 47 nM
IC50 [3]: 285 nM
IC50 [4]: 205 nM
IC50 [5]: 50 nM
IC50 [6]: 128 nM
IC50 [7]: 84 nM
IC50 [8]: 22 nM
cell inhibition activity after transient exposure (viable cells after wash-off) [9]: sustained cell inhibition activity
c-Myc suppression activity after washoff [10]: sustained c-Myc suppression activity
IC50 [11]: 173 nM
IC50 [12]: 28 nM
